{"source": "patent US10696651B2", "about": "“Heterocyclic compound” (Takeda Pharmaceutical Company Limited, priority 2016, dated 2020)", "key": {"[1]": {"biological_target": "T1, human GCN2 full-length protein (Homo sapiens, UniProt Q9P2K8)", "T1 construct": "purchased Carna Biosciences, Inc", "T1 sequence (Q9P2K8 whole entry)": "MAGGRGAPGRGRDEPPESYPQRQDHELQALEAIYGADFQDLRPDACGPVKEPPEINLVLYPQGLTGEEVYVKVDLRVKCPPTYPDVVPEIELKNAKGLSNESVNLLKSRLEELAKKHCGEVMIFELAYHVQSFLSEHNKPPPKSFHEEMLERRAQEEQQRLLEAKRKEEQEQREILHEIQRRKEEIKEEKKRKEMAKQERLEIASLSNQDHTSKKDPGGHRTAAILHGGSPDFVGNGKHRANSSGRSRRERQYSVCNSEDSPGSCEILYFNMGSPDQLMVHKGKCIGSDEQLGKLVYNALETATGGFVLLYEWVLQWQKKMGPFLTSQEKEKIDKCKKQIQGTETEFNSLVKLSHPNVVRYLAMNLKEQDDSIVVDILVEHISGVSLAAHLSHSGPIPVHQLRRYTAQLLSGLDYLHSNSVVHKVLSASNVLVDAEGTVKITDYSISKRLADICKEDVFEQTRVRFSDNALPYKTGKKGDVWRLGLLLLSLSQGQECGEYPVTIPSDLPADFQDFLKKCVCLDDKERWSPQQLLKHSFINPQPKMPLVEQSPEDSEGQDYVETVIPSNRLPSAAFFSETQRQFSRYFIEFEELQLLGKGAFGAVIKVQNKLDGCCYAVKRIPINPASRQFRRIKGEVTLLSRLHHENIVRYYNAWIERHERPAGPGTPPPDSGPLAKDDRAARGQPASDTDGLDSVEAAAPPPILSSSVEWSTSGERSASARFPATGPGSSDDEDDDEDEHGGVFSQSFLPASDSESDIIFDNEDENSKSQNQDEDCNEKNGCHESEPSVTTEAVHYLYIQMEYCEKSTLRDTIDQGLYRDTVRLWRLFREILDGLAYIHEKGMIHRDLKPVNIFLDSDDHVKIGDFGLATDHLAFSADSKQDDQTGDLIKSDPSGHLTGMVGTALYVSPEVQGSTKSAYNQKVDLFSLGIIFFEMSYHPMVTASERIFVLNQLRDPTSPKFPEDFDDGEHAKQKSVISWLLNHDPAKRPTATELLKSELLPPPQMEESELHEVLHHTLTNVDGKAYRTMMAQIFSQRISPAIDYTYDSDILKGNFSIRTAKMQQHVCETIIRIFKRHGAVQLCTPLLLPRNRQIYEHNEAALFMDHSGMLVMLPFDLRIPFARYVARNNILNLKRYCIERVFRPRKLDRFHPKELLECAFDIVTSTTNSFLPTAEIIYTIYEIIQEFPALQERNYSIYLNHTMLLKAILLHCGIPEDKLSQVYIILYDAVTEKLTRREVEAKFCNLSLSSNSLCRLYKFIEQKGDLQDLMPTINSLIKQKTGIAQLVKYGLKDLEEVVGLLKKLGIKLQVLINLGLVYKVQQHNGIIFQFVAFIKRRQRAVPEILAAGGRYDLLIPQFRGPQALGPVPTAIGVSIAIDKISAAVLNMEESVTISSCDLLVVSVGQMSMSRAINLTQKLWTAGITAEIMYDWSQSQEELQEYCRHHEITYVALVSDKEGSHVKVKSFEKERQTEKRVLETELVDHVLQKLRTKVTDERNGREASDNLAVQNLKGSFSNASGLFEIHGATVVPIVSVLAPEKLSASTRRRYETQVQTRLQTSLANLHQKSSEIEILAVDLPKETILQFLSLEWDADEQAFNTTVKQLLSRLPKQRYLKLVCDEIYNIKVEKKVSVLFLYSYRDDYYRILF", "experiment": "GCN2 enzyme inhibition assay (LanthaScreen TR-FRET)", "type": "biochemical", "conditions": "GCN2 enzyme inhibitory activity at compound concentration of 3 μM; Table 3-1; 3 µM", "method_in_brief": "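Full-length human GCN2 was preincubated with compound for 1 hr at room temperature, then reacted for 1 hr with substrate and ATP added from a 570 μM ATP / 390 nM substrate solution (stock concentrations). Phosphorylation was detected by TR-FRET with a terbium-labelled anti-eIF2alpha antibody after 1 hr, with enzyme-free wells as control.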"}, "[2]": {"tested_on": "osteosarcoma cell line U-2-OS", "experiment": "In vitro cell proliferation inhibition assay (CellTiter-Glo, low amino acid media)", "type": "cell-based", "conditions": "McCoy's 5A low amino acid media, 72 hr, Table 4-1", "method_in_brief": "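Cells seeded at 1000 per well in McCoy's 5A low amino acid medium (25% amino acid content), then exposed to compound for 72 h at 37° C., 5% CO2. ATP measured by CellTiter-Glo luminescence. Inhibition (%) at 100 nM calculated relative to pre-treatment and untreated control wells.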"}, "[3]": {"tested_on": "ATF4 expression in CCRF-CEM tumor", "experiment": "In vivo ATF4 expression suppression assay (Western blot of CCRF-CEM xenograft tumor) in the presence of L-asparaginase", "conditions": "compound 10 mg/kg oral 8 hr before tumor removal, L-asparaginase 1000 U/kg s.c. 32 hr and 8 hr before, CCRF-CEM xenograft in SCID mouse", "text": "One million human acute lymphoblastic leukemia cell lines CCRF-CEM obtained from ATCC (American Type Culture Collection) were suspended in Matrigel solution (Corning) and implanted subcutaneously into 6-week-old female SCID mouse (CLEA Japan, Inc.) by injection. The mice in which the tumor engrafted to a size of about 200-1000 mm^3 tumor volume after transplantation were selected and 3 mice per group were used for the experiment. L-asparaginase (Kyowa Hakko Kogyo Co., Ltd.) was subcutaneously administered at a dose of 1000 U/kg 32 hr and 8 hr before tumor removal. A 0.5% methylcellulose suspension of the compound was orally administered at a dose of 10 mg/kg 8 hr before tumor removal. After tumor removal, protein was extracted using Lysing Matrix I tube (MP Biomedicals) containing a protein extract (10% glycerol, 1% sodium dodecyl sulfate, 62.5 mM Tris-HCl [pH 7.5], protease and phosphatase inhibitors [Complete mini and PhosSTOP, Sigma-Aldrich Co. LLC.]) and subjected to Western blot.\nProtein extract solution was subjected to protein quantification with BCA Protein Assay Kit (Thermo Scientific), electrophoresed on 7.5-15% SDS-PAGE gel (DRC), and protein in the gel was transferred to PVDF membrane. The membrane was blocked with Starting Block T20 (PBS) Blocking Buffer (Thermo Scientific). […] Thereafter, chemiluminescence was performed using ImmunoStar LD (Wako Pure Chemical Industries, Ltd.), and luminescence intensity was measured by LAS-3000 image analyzer (Fuji Film Co., Ltd.). Furthermore, the expression level of ATF4 was digitized by quantifying the luminescence intensity using Multi Gauge Ver. […]\nBased on the ATF4 expression level of the control group orally administered with 0.5% methylcellulose suspension free of Example compound and the treatment group orally administered with Example compound suspension, the ATF4 expression inhibition ratio (%) of the test compound at a compound dose 10 mg/kg was calculated by the following formula and the results thereof are shown in Table 6. […]"}, "[4]": {"tested_on": "human acute lymphoblastic leukemia cells CCRF-CEM", "experiment": "In vivo tumor proliferation inhibitory assay with combined use of asparaginase (CCRF-CEM xenograft)", "conditions": "CCRF-CEM xenograft in SCID mouse", "text": "One million human acute lymphoblastic leukemia cells CCRF-CEM obtained from ATCC (American Type Culture Collection) were suspended in Matrigel solution (Corning) and implanted subcutaneously into 6-week-old female SCID mouse (CLEA Japan, Inc.) by injection. The mice in which the tumor engrafted to a size of about 200 mm^3 tumor volume after transplantation were selected and 5 mice per group were used for the experiment. A 0.5% methylcellulose suspension of the compound was orally administered twice per day for 9 days. Each compound was administered twice per day and the dose was 10 mg/kg for Example 14 and Example 7, and 6 mg/kg for Example 4. L-asparaginase (Kyowa Hakko Kogyo Co., Ltd.) was subcutaneously administered once per day at a dose of 1000 U/kg. Tumor diameter was measured one day before start of the administration and day 9 of the administration, and the tumor volume was calculated by the formula 1. tumor volume=major axis×minor axis×minor axis×(½) Formula 1\nTumor proliferation inhibitory rate (%) was calculated by the formula 2. tumor proliferation inhibitory rate (%)=(1−(T9−T0)/(C9−C0))×100 Formula 2 T9: average tumor volume of test drug administration group on day 9 of administration, T0: average tumor volume of test drug administration group one day before start of administration, C9: average tumor volume of control group on day 9 of administration, C0: average tumor volume of control group one day before start of administration"}}}
{"molecule": "O=S(=O)(Nc1ccc(F)c(C#Cc2cnc3[nH]ncc3c2)c1F)c1cc(Cl)ccc1Cl", "note": "[Example 14, 2,5-dichloro-N-(2,4-difluoro-3-(1H-pyrazolo[3,4-b]pyridin-5-ylethynyl)phenyl)benzenesulfonamide]", "values": [{"measurement": "inhibitory rate", "setting": "[1]", "result": 98, "unit": "%"}, {"measurement": "inhibitory rate", "setting": "[2]", "result": 42, "unit": "%"}, {"measurement": "in vivo ATF4 expression inhibition ratio (%)", "setting": "[3]", "result": 63, "unit": "%"}, {"measurement": "in vivo tumor proliferation inhibitory rate (%), GCN2 inhibitor", "setting": "[4]; GCN2 inhibitor alone, 10 mg/kg oral twice per day for 9 days", "result": 1, "unit": "%"}, {"measurement": "in vivo tumor proliferation inhibitory rate (%), combined use", "setting": "[4]; compound 10 mg/kg oral twice per day for 9 days combined with L-asparaginase 1000 U/kg s.c. once per day", "result": 64, "unit": "%"}]}
